# Source: patent publication US20230250066A1, “HERBICIDAL CINNOLINE DERIVATIVES” (SYNGENTA CROP PROTECTION AG, priority 2020, published 2023)
# Tests used:
# Type in all cases: in vivo
# Solanum nigrum (SOLNI) [1] = assay: Pre-emergence herbicidal test; conditions: 1000 g/ha, evaluated after 13 days
# Lolium perenne (LOLPE) [2] = assay: Pre-emergence herbicidal test; conditions: 1000 g/ha, evaluated after 13 days
# [3] = test system: Echinochloa crus-galli (ECHCG); assay: Pre-emergence herbicidal test; conditions: 1000 g/ha, evaluated after 13 days
# Setaria faberi (SETFA) [4] = assay: Post-emergence herbicidal test; conditions: 1000 g/ha unless otherwise stated, evaluated after 13 days
# Outline: (§1)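 Damage score (0–5; 5=81-100%, 1=10-20%, 0=0%) read 13 d after spraying. Spray: acetone/water 50:50 + 0.5% Tween 20, 1000 g/ha unless stated.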
# [5] = test system: Ipomoea hederacea (IPOHE); assay: Post-emergence herbicidal test; conditions: 1000 g/ha unless otherwise stated, evaluated after 13 days
# Outline: as §1
# Lolium perenne (LOLPE) [6] = assay: Post-emergence herbicidal test; conditions: 1000 g/ha unless otherwise stated, evaluated after 13 days
# Outline: as §1
# [7] = test system: Amaranthus retoflexus (AMARE); assay: Post-emergence herbicidal test; conditions: 1000 g/ha unless otherwise stated, evaluated after 13 days
# Outline: as §1
# Solanum nigrum (SOLNI) [8] = assay: Post-emergence herbicidal test; conditions: 1000 g/ha unless otherwise stated, evaluated after 13 days
# Outline: as §1
# [9] = test system: Echinochloa crus-galli (ECHCG); assay: Post-emergence herbicidal test; conditions: 1000 g/ha unless otherwise stated, evaluated after 13 days
# Outline: as §1
# [10] = test system: Amaranthus retoflexus (AMARE); assay: Pre-emergence herbicidal test; conditions: 1000 g/ha, evaluated after 13 days
# Setaria faberi (SETFA) [11] = assay: Pre-emergence herbicidal test; conditions: 1000 g/ha, evaluated after 13 days
# [12] = test system: Ipomoea hederacea (IPOHE); assay: Pre-emergence herbicidal test; conditions: 1000 g/ha, evaluated after 13 days
smiles,measurement,setting,value
"CS(=O)(=O)c1cccc2c1c(=O)c(C(=O)O)nn2-c1ccc(Cl)cc1 [Compound P5, 1-(4-chlorophenyl)-5-methylsulfonyl-4-oxo-cinnoline-3-carboxylic acid]","percentage damage caused to the plant, five-point scale, SOLNI",Solanum nigrum (SOLNI) [1],1 (1=10-20%)
same,"percentage damage caused to the plant, five-point scale, LOLPE",Lolium perenne (LOLPE) [2],4 (4=61-80%)
same,"percentage damage caused to the plant, five-point scale, ECHCG",[3],4 (4=61-80%)
same,"percentage damage caused to the plant, SETFA (five-point scale)",Setaria faberi (SETFA) [4],4 (4=61-80%)
same,"percentage damage caused to the plant, IPOHE (five-point scale)",[5],1 (1=10-20%)
same,"percentage damage caused to the plant, LOLPE (five-point scale)",Lolium perenne (LOLPE) [6],4 (4=61-80%)
same,"percentage damage caused to the plant, AMARE (five-point scale)",[7],1 (1=10-20%)
same,"percentage damage caused to the plant, SOLNI (five-point scale)",Solanum nigrum (SOLNI) [8],4 (4=61-80%)
same,"percentage damage caused to the plant, ECHCG (five-point scale)",[9],4 (4=61-80%)
same,"percentage damage caused to the plant, five-point scale, AMARE",[10],1 (1=10-20%)
same,"percentage damage caused to the plant, five-point scale, SETFA",Setaria faberi (SETFA) [11],4 (4=61-80%)
same,"percentage damage caused to the plant, five-point scale, IPOHE",[12],1 (1=10-20%)
